In ChEMBL document CHEMBL3352442, “Synthesis and structure-activity relationships study of dithiolethiones as inducers of glutathione in the SH-SY5Y neuroblastoma cell line” (Bioorg Med Chem Lett, 2014):
Activity calls are given as the source filed them. The rule behind the calls is not given here.

Legend:
[1] = system: SH-SY5Y; assay: Induction of glutathione in human SH-SY5Y cells at 100 uM incubated for 24 hrs by GSH/GSSG Glo assay; type: functional
[2] = system: SH-SY5Y; assay: (§1) Neuroprotection against 25 uM 6-hydroxydopamine-induced neurotoxicity in human SH-SY5Y cells assessed as cell viability at 100 uM pre-incubated for 24 hrs before 6-hydroxydopamine challenge; type: functional
[3] = Neuroprotection against 50 uM 6-hydroxydopamine-induced neurotoxicity in human SH-SY5Y cells assessed as cell viability at 100 uM pre-incubated for 24 hrs before 6-hydroxydopamine challenge; type: functional
[4] = as §1; type: functional
[5] = Toxicity against human SH-SY5Y cells at 100 uM incubated for 24 hrs; type: cell-based

| Compound | Activity [1] | Activity [2] | Activity [3] [%] | Activity [4] [%] | Activity [5] |
| --- | --- | --- | --- | --- | --- |
| S=c1cc(C2CC2)ss1 | Active | – | – | – | – |
| S=c1ssc2c1CCCC2 | 98% | – | – | – | – |
| Oc1ccc(-c2cc(=S)ss2)cc1 | inactive | – | – | – | – |
| S=c1sscc1-c1ccccc1 | Active | – | – | – | – |
| S=c1cc(-c2ccc(Cl)cc2)ss1 | inactive | inactive | – | – | – |
| S=c1ccss1 [DITHIOLETHIONE] | 215% | – | 47 | 52 | Non-toxic |
| S=c1sscc1-c1ccc(Cl)cc1 | Active | – | – | – | – |
| FC(F)(F)Cc1cssc1=S | Active | – | – | – | – |
| COc1ccc(-c2cc(=S)ss2)cc1 | inactive | – | – | – | – |
| Cc1ssc(=S)c1Cl | 175% | – | 33 | 52 | Non-toxic |
| S=c1ssc2c1CCC2 | 183% | – | 22 | 41 | Non-toxic |
| CCc1cc(=S)ss1 | Active | – | – | – | – |
| COc1ccc(-c2cssc2=S)cc1 | Active | – | – | – | – |
